US20080206374A1 (priority 2003, published 2008)
Where a name gives a salt, the structure may show the parent alone. Marks after values point to notes of the source that are not given here.

Legend:
[1] = test system: normally anaesthetized dogs; assay: cardiac hemodynamics and cardiac oxygen consumption of dogs; type: in vivo
Description: The experimental medicaments were prepared to the same volume (50 ml) with physiological saline, and injected through femoral vein at a speed of 5 ml/min by the computer minim syringe pump (Type AJ-5803, Shanghai).
The animals were anaesthetized intravenously with pentobarbital sodium (30 mg/kg, i.v), and connected with an electric respirator after tracheal intubation. The chests were opened in the position of the 4th left rib to expose the heart. The pericardium was cut to make a pericardial bed. The laevorotatory branch of coronary artery and the root of aorta were separated and a probe of an electromagnetic flowmeter (Type MF-1100) was placed in to measure the blood flow of coronary artery and cardiac output. The tip of left ventricle was intubated and connected with a pressure energy transducer (MPU-0.5A). The internal pressure of left ventricle was measured with a carrier amplifier (AG-601G), and the maximal ascending rate (dp/dtmax) of the internal pressure of left ventricle was measured with a differentiator (ED-601G). The animals were intubated through the external jugular vein into the coronary vein sinus and also intubated through the carotid. The blood oxygen contents of coronary vein sinus and artery were measured using a blood oxygen instrument (Type AVL912, Swiss) to calculate the myocardial oxygen consumption. Then the femoral artery was intubated to measure the blood pressure of artery. And then with the Standard Limb Lead II of electrocardiogram, the heart rate and the related parameters of electrocardiogram were calculated. With the formula, other indexes of hemodynamics were calculated: cardiac stroke output, oxygen consumption index, cardiac index, resistance of coronary artery, total peripheral resistance and oxygen utility, etc. All the above-mentioned indexes were recorded by a multirunning physiological recorder (Type RM-6000, Japan Photoelectricity) synchronously.
After the operation and the observed indexes being stable, the values before medicament were recorded, and the experimental medicaments were then administered. The values were recorded at 5 minutes of the middle of the process of administration, immediately after, and 1, 3, 5, 10, 15, 30, and 60 minutes after administered medicaments. All the measured indexes and derived parameters were processed statistically. The self-comparisons of the actual measurement values within different time periods after and before administered medicaments were made. Using the t-Test, the changed rate percentages were compared to show the significance between the groups.

[2] = test system: experimental acute myocardial ischemia of dogs; assay: experimental acute myocardial ischemia and myocardial infarction of anesthetized dogs (coronary artery ligature); type: in vivo
Description: The experimental medicaments were prepared with physiological saline to the same volume (50 ml), and injected through femoral vein at a speed of 5 ml/min with the computer minim syringe pump (Type AJ-5803, Shanghai).
The animals were anaesthetized with pentobarbital sodium (30 mg/kg, i.v), and connected with an electric respirator after tracheal intubation. The chest was opened in the position of the 4th left rib to expose the heart. The pericardium was cut out to make a pericardial bed. The laevorotatory branch of coronary artery was separated and a probe of an electromagnetic flowmeter (Type MF-1100) was placed in to measure the blood flow of coronary artery. The middle section of anterior descending branch of coronary artery was separated and a thread was put through for ligature to make a model of experimental acute myocardium myocardial ischemia. A multipoint fixed epicardium electrode was sewed up and connected with a multirunning physiological recorder (Type RM-6100, Japan Photoelectricity) to display and record the electrocardiogram of epicardium^<1>. The coronary artery was ligated for 15 minutes and recorded as a control value before medicaments administration. The experimental medicaments or physiological saline was injected through the femoral vein. At […] 15, 30, 45, 60, 90, 120, and 180 minutes after medicament administration, 30 measuring points of the epicardium electrocardiogram were recorded. The rising S-T section that is more than 2 mv was taken as a judgment standard to calculate the degree of myocardial ischemia (total mv number of the rising S-T section Σ-ST) and the range of myocardial ischemia (total point number of the rising S-T section N-ST). After intubation through the […] into the coronary vein sinus, the blood oxygen content of coronary vein was measured by a blood oxygen instrument (Type AVL912, Swiss) while the blood samples were taken before ischemia, ischemia 15 min (before administration), at 15, 30, 60, 120, and 180 minutes after medicament administration. Then the animal was intubated into the carotid to measure the blood oxygen content of artery. It was calculated together with the blood flow of coronary artery to measure the myocardial oxygen consumption:
Myocardial oxygen consumption=(blood oxygen content of artery−blood oxygen content of coronary vein)×blood flow of coronary artery/100.
The blood samples were taken at the above-mentioned time points, and then serum creatine phosphate kinase (CK) and lactic dehydrogenase (LDH) were measured with a full-automatic biochemical analyzer (Type RA-1000, USA). And ET, TXB2 and 6-Keto-PGF1 were measured with the Radioimmuno-method and with a full-automatic γ counter (Type FT-630G, Beijing).
When recording was finished at 180 minutes after medicament administration, the heart was taken out immediately, washed with physiological saline and weighed as a whole. Under the ligature line of the heart, the ventricle was cut evenly into 5 pieces parallel to the coronary sulcus. Then the pieces were placed in the N-BT solution and stained at the room temperature for 15 minutes. The infarcted area (N-BT non-stained area) and the non-infarcted area (N-BT stained area) on the lateral sides of each piece of myocardium were measured with a Multimedia Color Pathological Image Analyzing System (Type MPIAS-500, Beijing) The area of each piece of myocardium, the total area of ventricle and the area of the infarcted section were calculated. The percentage of the infarcted area over the ventricle and that over total heart were calculated.
The experimental result was processed statistically and its significance was tested with t-Test.

[3] = test system: myocardial ischemia reperfusion injury of rats; assay: myocardial infarction caused by ischemia reperfusion; type: in vivo; conditions: 1.0 mg/kg
Description: The medicaments were diluted to desired concentration with physiological saline. The volume of administered medicament was 4 ml/kg. And the medicaments were given through the left femoral vein.
The animals were anaesthetized by pentobarbital sodium (45 mg/kg) through abdominal cavity and fixed in backstroke position. […] The tracheas were cut open, the trachea cannulas were inserted, and tracheas were connected with a respirometer (Type SC-3, Shanghai) for artificial respiration (32/min, with a respiration ratio of 1:3). The 3rd-5th ribs were cut off after opening the chest, and the pericardiums were opened to expose the heart. A suture (suture No. 0) was put through the root of left anterior descending branch of coronary artery for ligature. After the suture being put through stably for 10 minutes, a plastic concave pipe was placed parallel with the blood vessel, which was then ligated (eliminating the ones without changes of ST and T-wave). The experimental medicaments were administered. After 40 minutes, the ligature suture was cut off along the groove to trigger the reperfusion of the anterior descending branch. The chest was then seamed and independent respiration was recovered.
The bloode samples were taken from the ventral aorta to measure the serum SOD and MDA contents after 2 hours of the ligature. The heart was sliced into 5 pieces under heart ligature and was stained by N-BT. Using a Multimedia Pathological Color Image Analyzing System (Type MPIAS-500, Beijing), the areas of the normal myocardiums and the myocardial infraction were calculated. The degree of myocardial infarction was observed. And the experimental results were statistically analyzed (t-Test).

[4] = test system: Sarcoma S180 lines; conditions: cyclophosphamide alone
Description: Kunming Hybrid mice with weight of 18-22 g were inoculated with Sarcoma S180 lines.
The experimental medicament and animals of this experiment were the same as that of Experimental Example 2.

[5] = blood viscosity of rats; type: in vivo; conditions: 90 mg/kg i.v., once per day for 3 days
Description: (§1) All the animal groups were intravenously injected the medicaments through caudal vein with the said dose of 4 ml/kg, once per day for continuously 3 days. 30 minutes after the final injection, animals were anaesthetized with pentobarbital sodium (30.0 mg/kg). 2 ml blood was then drawn from the abdominal aorta for the measurement of the thrombosis in vitro and 3 ml blood (heparinized) was drawn for the measurement of blood viscosity.
Measurement of the blood viscosity: 0.8 ml blood was taken from the 3 ml blood sample (heparinized) to measure the whole blood viscosity. The rest of the sample was centrifuged at 650×g for 10 minutes. 0.8 ml supernatant was taken to measure the blood plasma viscosity.

[6] = test system: thrombosis in vitro; assay: thrombosis in vitro of rats (Chandler method); type: in vivo; conditions: 90 mg/kg i.v., once per day for 3 days
Description: as §1
Measurement of the thrombuses in vitro: According to Chandler method in vitro, the blood was immediately filled and sealed in a rotating ring with the volume less than ½ ring (1.8 ml). It was placed on a thrombosis Instrument and rotated for 10 minutes (with experimental temperature of 37° C.). Then the thrombus was spilled out and washed with physiological saline. The length was measured and the wet quality was weighed. The thrombus bar was placed in an 80° C. oven for 3 hours. It was weighed after the weight getting stable.

[7] = test system: Platelet Aggregation; assay: platelet aggregation of rabbits (Born Turbidimetry); type: in vivo; conditions: 45 mg/kg i.v. once per day for 3 days
Description: Before administration, the artery in ears was punctured and the blood was taken to measure the platelet aggregation rate. According to the level of platelet aggregation and the body weight, the 48 rabbits were randomly divided into 6 groups (8 rabbits per group):
The administration groups were administered medicaments intravenously through ear edges with the said dosages, and the Control group was injected with equivalent volume of 0.9% sodium chloride, once per day for continuously 3 days. After the final medicaments administration, the artery in ears was punctured, the blood sample was taken and the platelet aggregation rate was measured.
The artery in ears was punctured with a siliconized injector to take blood sample, which was anticoagulated with the citron sodium solution (blood:anticoagulant=9:1). The blood sample solution was centrifuged at 200×g for 8 minutes, and the supernatant, that is, the Platelet Rich Plasma (PRP) was taken. The rest of the solution was centrifuged at 2200×g for 10 minutes, and the top clear part, that is, the Platelet Poor Plasma (PPP) was taken. The count of Platelets in PRP was about 4.0×10^5/mm^3. According to the Born Turbidimetry, the turbidity tube with 200 μl PRP and a small magnetic stick was placed in the platelet aggregation instrument and kept at 37° C. for one minute. After PPP being standardized, an inducer was added with stirring to induce the aggregation. The end concentration of the inducer is: 47.6 μM/L (ADP), 782.0 μM/L (M), and […] (Collagen). The influence of the medicaments upon the Platelet Aggregation was analyzed according to the aggregation curves and maximal aggregation rate printed by the instrument. The calculating formula for maximal aggregation rate was as follows:
aggregation=Transmittance after PRP Aggregation−Transmittance before PRP Aggregation×100% rate Transmittance of PPP−Transmittance before PRP Aggregation

[8] = Herbesser Injection, femoral vein
[9] = Dose/kg 0.5 mg, femoral vein, 180 minutes, N-BT staining
[10] = serum after 2 hours of the ligature

With `COc1ccc([C@@H]2Sc3ccccc3N(CCN(C)C)C(=O)[C@@H]2OC(C)=O)cc1` [Herbesser, Diltiazem Hydrochloride] the “blood flow and resistance of coronary artery (in words)” value ([1]; Herbesser Injection) was “markedly increased the blood flow and the resistance of coronary artery”, the “arterial blood pressure (in words)” value [1, 8] was “obvious effect of reducing blood pressure” and the “heart rate (in words)” value [1, 8] was “slowing down heart rate”. For the same compound, the “Infarcted Area” value [2, 9] was 281.30 ± 159.9*** mm^2, the “Infarcted Area/heart” value [2, 9] was 2.27 ± 0.73 and the “Infarcted Area/ventricle” value [2, 9] was 7.44 ± 2.61. The “increasing activity of serum CK and LDH caused by myocardial ischemia and infarction (in words)” value ([2]; Herbesser, composition 2.4 g crude drug/kg, P<0.05 vs physiological saline) was “significantly inhibited”, the “blood flow of coronary artery (in words)” value ([2]; after ligature of the coronary artery) was “evident effect of increasing blood flow of coronary artery” and the “ET activity in plasma caused by myocardial ischemia and infarction (in words)” value ([2]; dog, in vivo) was “obvious inhibiting effect on the ET activity”. For the same compound, the “blood oxygen content of vein sinus (in words)” value ([2]; no statistical meaning) was “effect trend of increasing blood oxygen content of vein sinus”, the “Infarcted Area/heart” value ([3]; left femoral vein) was 16.6 ± 2.6 and the “Infarcted Area/ventricle %” value ([3]; left femoral vein) was 21.6 ± 4.3 %. For the same compound, the “The area of myocardial infraction” value ([3]; left femoral vein) was 61.72 ± 9.68** mm^2, the “Weight of Infarcted Area” value ([3]; left femoral vein) was 0.154 ± 0.027 g and the “MDA content of blood serum” value [3, 10] was 2.35 ± 0.07 µmol/L. The “SOD content of blood serum” value [3, 10] was 660.9 ± 159.7 ng/mL.

With `O=P1(N(CCCl)CCCl)NCCCO1` (centres unmarked) [cyclophosphamide] the “tumor body (M ± SD)” value [4] was 0.89 ± 0.55 volume % and the “Rate of Inhibiting tumors” value ([4]; compared with the Blank Control group) was 65%Δ.

For `CCCCC[C@H](O)/C=C/[C@@H]1[C@@H](CC(=O)CCCCC(=O)O)[C@@H](O)C[C@H]1O` [Composition 6-Keto-PGF1, 6-keto-prostaglandin F1α], the “cardiac stroke output (in words)” value ([1]; dog, in vivo) was “markedly increased the cardiac stroke output”, the “resistance of outer periphery (in words)” value ([1]; dog, in vivo) was “reduced the resistance of outer periphery” and the “myocardial oxygen consumption (in words)” value ([2]; 15 minutes after given) was “obviously reduced”.

With `CC(=O)Oc1ccccc1C(=O)O.NCCCCC(N)C(=O)O` (racemic) [Aspirin-DL-Lysine] the “Blood viscosity (100 S^−1)” value [5] was 2.38 ± 1.12, the “Whole blood viscosity, High shearing (200 S^−1)” value [5] was 3.37 ± 0.58 CP and the “Whole blood viscosity, Low shearing (5 S^−1)” value [5] was 6.35 ± 1.03 CP. For the same compound, the “Whole blood viscosity, Middle shearing (30 S^−1)” value [5] was 4.71 ± 0.95 CP, the “Whole blood viscosity, Middle shearing (100 S^−1)” value [5] was 3.81 ± 0.91 CP and the “Thrombus Dry weight” value [6] was 18.9 ± 1.4 mg. For the same compound, the “Thrombus Length” value [6] was 18.8 ± 1.5 mm, the “Thrombus Wet weight” value [6] was 100.1 ± 12.5 mg and the “Aggregation Rate After administration” value ([7]; Inducer AA) was 0.24 ± 0.69%. The “Aggregation Rate Value Difference (after − before)” value (from here on “Aggregation Rate Value Difference”) ([7]; Inducer AA) was −63.65 ± 7.05 %, the “Aggregation Rate After administration” value ([7]; Inducer ADP) was 57.78 ± 6.01% and the “Aggregation Rate Value Difference” value ([7]; Inducer ADP) was 8.85 ± 6.37%. For the same compound, the “Aggregation Rate After administration” value ([7]; Inducer Collagen) was 45.29 ± 5.72% and the “Aggregation Rate Value Difference” value ([7]; Inducer Collagen) was −21.19 ± 4.24 %.
